molecular target: T1, GHSR-1a (HEK293/GHSR1a cell line) (Homo sapiens, UniProt Q92847); assay: Ghrelin antagonist potency (IC50) with calcium FLIPR assay, ghrelin 10 nM; assay type: cell-based; details: HEK293/GHSR1a, ghrelin 10 nM, read-out: Activity IC50 (ghrelin antagonist potency)
T1 construct: expressed in transfected cells; host or cells: HEK293/GHSR1a cell line
Protocol: Evaluation of Ghrelin Agonist (EC50) and Antagonist Potency (IC50) with Calcium FLIPR Assay:
The intracellular calcium assay was carried out in a 384-well format FLIPR™ (Molecular Device) HEK293/GHSR1a cell line. Cells were seeded 24 hr prior to the experiments at an optimal density per well. Preincubation with selected calcium dye lasted for 30-60 min at room temperature or 37° C. Test compounds, dissolved in DMSO, were added at the appropriate time and incubated for 15 min followed by the addition of ghrelin with FlexStation or FLIPR. Relative fluorescence was monitored by the FLIPR™ Molecular Device. EC50 and IC50 values were estimated from dose-response data using GraphPad Prism software. To check for GHSR-1a agonism, the compound was added at t=20 sec. and the calcium response was followed for 2 minutes. To check for GHSR-1a antagonism, the compound and Ghrelin (10 nM) were added to the cells at t=20 sec. and the calcium response was measured for 2 minutes. The potency of the antagonist was calculated by its ability to reduce the ghrelin response. Dose-response curves were made for relevant antagonists.

T1 sequence (Q92847 whole entry): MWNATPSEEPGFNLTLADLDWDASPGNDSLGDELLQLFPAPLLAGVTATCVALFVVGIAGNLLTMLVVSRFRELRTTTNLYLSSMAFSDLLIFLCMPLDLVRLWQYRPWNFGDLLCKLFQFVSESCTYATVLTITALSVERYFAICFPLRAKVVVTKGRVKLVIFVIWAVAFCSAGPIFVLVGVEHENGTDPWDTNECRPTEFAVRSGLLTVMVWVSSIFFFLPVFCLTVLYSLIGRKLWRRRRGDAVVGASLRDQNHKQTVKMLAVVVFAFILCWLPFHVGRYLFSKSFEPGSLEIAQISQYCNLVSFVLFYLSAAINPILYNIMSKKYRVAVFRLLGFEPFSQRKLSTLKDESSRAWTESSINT

SMILES	IC50 [nM]
CCc1ccc(Cl)c(C(=O)NC(=O)Nc2ccc(S(=O)(=O)Nc3ccc(CC(C)(C)N)cc3)cc2)c1 [H1254, N-((4-(N-(4-(2-amino-2-methylpropyl)phenyl)sulfamoyl)phenyl)carbamoyl)-2-chloro-5-ethylbenzamide]	17.2
CCc1ccc(Cl)c(C(=O)NC(=O)Nc2ccc(S(=O)(=O)Nc3ccc4c(c3)CNCC4)cc2)c1 [H1263, 2-chloro-5-ethyl-N-((4-(N-(1,2,3,4-tetrahydroisoquinolin-7-yl)sulfamoyl)phenyl)carbamoyl) benzamide]	246
C[C@H](NC(=O)Nc1ccc2c(c1)C=C(c1ccc3c(c1)CNC3)S2(=O)=O)c1ccccc1 [H1270, (S)-1-(2-(isoindolin-5-yl)-1,1-dioxidobenzo[b]thiophen-5-yl)-3-(1-phenylethyl)urea]	25.1
COc1ccc(C(C)NC(=O)Nc2ccc3c(c2)CC(c2ccc4c(c2)CNC4)S3(=O)=O)cc1 (stereo not shown) [H1297, 1-(2-(isoindolin-5-yl)-1,1-dioxido-2,3-dihydrobenzo[b]thiophen-5-yl)-3-(1-(4-methoxyphenyl)ethyl)urea]	23.1
CC(c1ccccc1)N1Cc2cc(S(=O)(=O)Cc3ccc4c(c3)CNC4)ccc2NC1=O (stereo not shown) [H1395, 6-((isoindolin-5-ylmethyl)sulfonyl)-3-(1-phenylethyl)-3,4-dihydroquinazolin-2(1H)-one]	68.9

same assay, conditions: ghrelin antagonist potency, read-out: IC50 (Activity)

SMILES	IC50 [nM]
C[C@H](NC(=O)Nc1ccc(S(=O)(=O)Nc2ccc(CC(C)(C)N)cc2)cc1)c1ccc(C#CC2CC2)c(Cl)c1Cl [H0907, (S)-N-(4-(2-amino-2-methylpropyl)phenyl)-4-(3-(1-(2,3-dichloro-4-(cyclopropylethynyl)phenyl)ethyl)ureido)benzenesulfonamide]	23.5
COc1ccc([C@H](C)NC(=O)Nc2ccc(S(=O)(=O)Nc3ccc(CCN)cc3)cc2)c(Cl)c1Cl [H0951, (S)-N-(4-(2-aminoethyl)phenyl)-4-(3-(1-(2,3-dichloro-4-methoxyphenyl)ethyl)ureido) benzenesulfonamide]	83.8
Cc1ccc(CS(=O)(=O)c2ccc(NC(=O)N[C@@H](C)c3cccc(Cl)c3Cl)cc2)cc1 [H0964, (S)-1-(1-(2,3-dichlorophenyl)ethyl)-3-(4-((4-methylbenzyl)sulfonyl)phenyl)urea]	4170
C[C@H](NC(=O)Nc1ccc(S(=O)(=O)Nc2ccc3[nH]ccc3c2)cc1)c1cccc(Cl)c1Cl [H0991, (S)-4-(3-(1-(2,3-dichlorophenyl)ethyl)ureido)-N-(1H-indol-5-yl)benzenesulfonamide]	146
C[C@H](NC(=O)Nc1ccc(S(=O)(=O)Nc2ccc3c(c2)CCNC3)cc1)c1ccc(-c2cnccn2)c(Cl)c1Cl [H1006, (S)-4-(3-(1-(2,3-dichloro-4-(pyrazin-2-yl)phenyl)ethyl)ureido)-N-(1,2,3,4-tetrahydroisoquinolin-6-yl)benzenesulfonamide]	72
COc1ccc(C(C)NC(=O)Nc2ccc(S(=O)(=O)Cc3ccc(CO)cc3)cc2)c2ccccc12 (stereo not shown) [H1140, 1-(4-((4-(hydroxymethyl)benzyl)sulfonyl)phenyl)-3-(1-(4-methoxynaphthalen-1-yl)ethyl)urea]	≥ 30000
COc1ccc(C(C)NC(=O)Nc2ccc(S(=O)(=O)Nc3ccc(CO)cc3)cc2)c2ccccc12 (stereo not shown) [H1145, N-(4-(hydroxymethyl)phenyl)-4-(3-(1-(4-methoxynaphthalen-1-yl)ethyl)ureido) benzenesulfonamide]	≥ 30000
C[C@H](NC(=O)N(O)c1ccc(S(=O)(=O)Nc2ccc3c(c2)CNC3)cc1)c1cccc(Cl)c1Cl [H1188, (S)-4-(3-(1-(2,3-dichlorophenyl)ethyl)-1-hydroxyureido)-N-(isoindolin-5-yl)benzenesulfonamide]	539
CC(NC(=O)N(O)c1ccc(S(=O)(=O)Nc2ccc3c(c2)CNC3)cc1)c1ccccc1 (stereo not shown) [H1199, 4-(1-hydroxy-3-(1-phenylethyl)ureido)-N-(isoindolin-5-yl)benzenesulfonamide]	75.7
O=C(NCc1cncs1)Nc1ccc(S(=O)(=O)Cc2ccc3c(c2)CNC3)cc1 [H1208, 1-(4-((isoindolin-5-ylmethyl)sulfonyl)phenyl)-3-(thiazol-5-ylmethyl)urea]	> 30000
CC(NC(=O)N(C)c1ccc(S(=O)(=O)Cc2ccc3c(c2)CNC3)cc1)c1ccccc1 (stereo not shown) [H1213, 1-(4-((isoindolin-5-ylmethyl)sulfonyl)phenyl)-1-methyl-3-(1-phenylethyl)urea]	4350
O=C(NCc1cscn1)Nc1ccc(S(=O)(=O)Cc2ccc3c(c2)CNC3)cc1 [H1216, 1-(4-((isoindolin-5-ylmethyl)sulfonyl)phenyl)-3-(thiazol-4-ylmethyl)urea]	8450
C[C@H](NC(=O)Nc1ccc(S(=O)(=O)Cc2ccc(CO)cc2)cc1)c1ccccc1 [H1222, (S)-1-(4-((4-(hydroxymethyl)benzyl)sulfonyl)phenyl)-3-(1-phenylethyl)urea]	3160
C[C@H](NC(=O)Nc1ccc(S(=O)(=O)N2CCN(C)CC2)cc1)c1ccccc1 [H1225, (S)-1-(4-((4-methylpiperazin-1-yl)sulfonyl)phenyl)-3-(1-phenylethyl)urea]	5900
CN1Cc2ccc(CS(=O)(=O)c3ccc(NC(=O)NCC4CC4)cc3)cc2C1 [H1230, 1-(cyclopropylmethyl)-3-(4-(((2-methylisoindolin-5-yl)methyl)sulfonyl)phenyl)urea]	6400
CC(NC(=O)Nc1ccc(S(=O)(=O)C(C)(C)c2ccc3c(c2)CN(Cc2ccccc2)C3)cc1)c1ccccc1 (stereo not shown) [H1231, 1-(4-((2-(2-benzylisoindolin-5-yl)propan-2-yl)sulfonyl)phenyl)-3-(1-phenylethyl)urea]	> 30000
C[C@H](NC(=O)Nc1ccc(S(=O)(=O)C2CCN(C)CC2)cc1)c1ccccc1 [H1237, (S)-1-(4-((1-methylpiperidin-4-yl)sulfonyl)phenyl)-3-(1-phenylethyl)urea]	> 30000
C[C@H](NC(=O)Nc1ccc(S(=O)(=O)CC2CCN(C)CC2)cc1)c1ccccc1 [H1238, (S)-1-(4-(((1-methylpiperidin-4-yl)methyl)sulfonyl)phenyl)-3-(1-phenylethyl)urea]	> 30000
C[C@H](NC(=O)Nc1ccc(S(=O)(=O)NC2CCN(C)CC2)cc1)c1ccccc1 [H1239, (S)-N-(1-methylpiperidin-4-yl)-4-(3-(1-phenylethyl)ureido) benzenesulfonamide]	> 30000
CCc1ccc(Cl)c(C(=O)NC(=O)Nc2ccc(S(=O)(=O)Cc3ccc4c(c3)CNC4)cc2)c1 [H1248, 2-chloro-5-ethyl-N-((4-((isoindolin-5-ylmethyl)sulfonyl)phenyl)carbamoyl)benzamide]	283
O=C(NC(=O)c1cc(N2CCOCC2)ccc1Cl)Nc1ccc(S(=O)(=O)Nc2ccc3c(c2)CNC3)cc1 [H1250, 2-chloro-N-((4-((isoindolin-5-yl)sulfamoyl)phenyl)carbamoyl)-5-morpholinobenzamide]	1370
CCOc1ccc(Cl)c(C(=O)NC(=O)Nc2ccc(S(=O)(=O)Cc3ccc4c(c3)CNC4)cc2)c1 [H1251, 2-chloro-5-ethoxy-N-((4-((isoindolin-5-ylmethyl)sulfonyl)phenyl)carbamoyl)benzamide]	89.6
CCOc1ccc(Cl)c(C(=O)NC(=O)Nc2ccc(S(=O)(=O)Nc3ccc4c(c3)CNC4)cc2)c1 [H1252, 2-chloro-5-ethoxy-N-((4-(N-(isoindolin-5-yl)sulfamoyl)phenyl)carbamoyl) benzamide]	440
CCc1ccc(Cl)c(C(=O)NC(=O)Nc2ccc(S(=O)(=O)Cc3ccc(CC(C)(C)N)cc3)cc2)c1 [H1253, N-((4-((4-(2-amino-2-methylpropyl)benzyl)sulfonyl)phenyl)carbamoyl)-2-chloro-5-ethylbenzamide]	86.8

molecular target: T2, recombinant human ghrelin receptor (HEK293/GRLN) (Homo sapiens, UniProt Q92847); assay: Ghrelin inverse agonist potency (EC50) with IP-1 (IP-One HTRF) assay; assay type: cell-based; details: inverse agonist potency, IP-1 assay; read-out: EC50 (Activity)
T2 construct: expressed in transfected cells
T2 sequence (Q92847 whole entry): as above
Protocol: Evaluation of Ghrelin Inverse Agonist Potency (EC50) with IP-1 Assay:
HEK293 cells stably expressing recombinant human ghrelin receptor (HEK293/GRLN) were used in the IP-One HTRF assay. One day before the test, cells were seeded at a density of 1.5×10^4/well in a Matrigel® coated 384-well plate with 30 μL of complete Dulbecco's Modified Eagle's Medium and incubated at 37° C. in 5% CO2 for 18-22 hours. On the test day, the medium was removed by centrifugation at 600 rpm for 30 seconds, and 20 μL of stimulation buffer containing 1x tested compound was added with Bravo (Agilent technologies). The plate was then incubated at 37° C. 5% CO2 for 1 hour. After the incubation, 5 μL of IP1-d2 and 5 μL of Tb-Cryp were added to all wells using multidrop Combi(Thermo). After additional incubation at room temperature for 1 hour, the plates were read on Envision with 620 and 665 (Perkin Elmer).

SMILES	EC50 [nM]
C[C@H](NC(=O)Nc1ccc(S(=O)(=O)Nc2ccc(CC(C)(C)N)cc2)cc1)c1ccc(C#CC2CC2)c(Cl)c1Cl [H0907, (S)-N-(4-(2-amino-2-methylpropyl)phenyl)-4-(3-(1-(2,3-dichloro-4-(cyclopropylethynyl)phenyl)ethyl)ureido)benzenesulfonamide]	1610
COc1ccc([C@H](C)NC(=O)Nc2ccc(S(=O)(=O)Nc3ccc(CCN)cc3)cc2)c(Cl)c1Cl [H0951, (S)-N-(4-(2-aminoethyl)phenyl)-4-(3-(1-(2,3-dichloro-4-methoxyphenyl)ethyl)ureido) benzenesulfonamide]	32.7
Cc1ccc(CS(=O)(=O)c2ccc(NC(=O)N[C@@H](C)c3cccc(Cl)c3Cl)cc2)cc1 [H0964, (S)-1-(1-(2,3-dichlorophenyl)ethyl)-3-(4-((4-methylbenzyl)sulfonyl)phenyl)urea]	2480
C[C@H](NC(=O)Nc1ccc(S(=O)(=O)Nc2ccc3[nH]ccc3c2)cc1)c1cccc(Cl)c1Cl [H0991, (S)-4-(3-(1-(2,3-dichlorophenyl)ethyl)ureido)-N-(1H-indol-5-yl)benzenesulfonamide]	66.8
CCNC(=O)Nc1ccc(S(=O)(=O)Nc2ccc(CC(C)(C)N)cc2)cc1 [H0994, N-(4-(2-amino-2-methylpropyl)phenyl)-4-(3-ethylureido)benzenesulfonamide]	1430
C[C@H](NC(=O)Nc1ccc(S(=O)(=O)Nc2ccc3c(c2)CCNC3)cc1)c1ccc(-c2cnccn2)c(Cl)c1Cl [H1006, (S)-4-(3-(1-(2,3-dichloro-4-(pyrazin-2-yl)phenyl)ethyl)ureido)-N-(1,2,3,4-tetrahydroisoquinolin-6-yl)benzenesulfonamide]	36.9
COc1ccc(CS(=O)(=O)c2ccc(NC(=O)N[C@@H](C)c3cccc(Cl)c3Cl)cc2)cc1 [H1083, (S)-1-(1-(2,3-dichlorophenyl)ethyl)-3-(4-((4-methoxybenzyl)sulfonyl)phenyl)urea]	1180
C[C@H](NC(=O)Nc1ccc(S(=O)(=O)Cc2ccc3c(c2)CCOC3)cc1)c1cccc(Cl)c1Cl [H1092, (S)-1-(1-(2,3-dichlorophenyl)ethyl)-3-(4-((isochroman-6-ylmethyl)sulfonyl)phenyl)urea]	578

Source: US10501479B2, “Benzenesulfonyl-asymmetric ureas and medical uses thereof” (HELSINN HEALTHCARE SA, priority 2016, dated 2019)
